# Data taken from US20230295200A1 (REGENTS OF THE UNIVERSITY OF MICHIGAN, priority 2022, published 2023).
# Biological target: T1, STAT6 protein (Homo sapiens, UniProt P42226)
# T1 sequence (P42226 1-847): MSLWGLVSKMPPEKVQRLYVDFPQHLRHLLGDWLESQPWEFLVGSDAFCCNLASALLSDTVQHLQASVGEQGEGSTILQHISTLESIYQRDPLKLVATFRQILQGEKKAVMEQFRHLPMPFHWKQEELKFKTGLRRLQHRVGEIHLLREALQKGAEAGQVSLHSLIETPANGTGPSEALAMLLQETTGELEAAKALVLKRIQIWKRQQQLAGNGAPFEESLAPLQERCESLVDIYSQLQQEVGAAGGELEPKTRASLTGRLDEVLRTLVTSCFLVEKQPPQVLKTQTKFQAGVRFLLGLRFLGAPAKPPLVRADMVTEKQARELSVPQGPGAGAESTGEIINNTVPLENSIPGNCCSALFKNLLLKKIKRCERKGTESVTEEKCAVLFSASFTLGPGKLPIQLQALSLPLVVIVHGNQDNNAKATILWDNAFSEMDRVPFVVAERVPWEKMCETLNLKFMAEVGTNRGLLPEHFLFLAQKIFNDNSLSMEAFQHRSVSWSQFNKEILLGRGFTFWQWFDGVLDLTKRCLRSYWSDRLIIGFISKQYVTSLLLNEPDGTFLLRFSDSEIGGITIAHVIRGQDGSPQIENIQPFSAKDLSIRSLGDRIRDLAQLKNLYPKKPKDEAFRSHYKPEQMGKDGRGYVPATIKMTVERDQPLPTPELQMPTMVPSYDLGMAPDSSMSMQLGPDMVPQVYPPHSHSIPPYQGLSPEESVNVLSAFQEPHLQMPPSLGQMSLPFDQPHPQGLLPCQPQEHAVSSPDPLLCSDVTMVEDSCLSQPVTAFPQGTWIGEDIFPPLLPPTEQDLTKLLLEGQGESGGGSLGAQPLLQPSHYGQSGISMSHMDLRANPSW
# Assay: Fluorescence polarization (FP) binding assay, STAT6
# Details: not given
# How it was run: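 Fluorescein-labelled tracer (5 nM) with 200 nM STAT5 and/or STAT6 protein in PBS pH 7.4, 0.01% BGG, 0.01% Tween-20, 2 mM DTT. Mixed 15 min, then equilibrated 1 h at room temperature; read by fluorescence polarization, constants from nonlinear curve fitting.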
row,Structure (SMILES),Ki
1,"CCOP(=O)(O)C(F)(F)c1ccc2sc(C(=O)N[C@H]3CN(C(C)=O)CC[C@H]4CC[C@@H](C(=O)N5CCC6(CCCCCC6)C5)N4C3=O)cc2c1 [Compound 384, ethyl hydrogen ((2-(((5S,85,10aR)-3-acetyl-6-oxo-8-(2-azaspiro[4.6]undecane-2-carbonyl)decahydropyrrolo[1,2-a][1,5]diazocin-5-yl)carbamoyl)benzo[b]thiophen-5-yl)difluoromethyl)phosphonate]",> 10 µM
2,"CCOP(=O)(O)C(F)(F)c1ccc2sc(C(=O)N[C@H]3CN(C(C)=O)CC[C@H]4CC[C@@H](C(=O)N5CCCC56CCCC6)N4C3=O)cc2c1 [Compound 386, ethyl hydrogen ((2-(((5S,8S,10aR)-3-acetyl-6-oxo-8-(1-azaspiro[4.4]nonane-1-carbonyl)decahydropyrrolo[1,2-a][1,5]diazocin-5-yl)carbamoyl)benzo[b]thiophen-5-yl)difluoromethyl)phosphonate]",> 10 µM

# Same assay, conditions: FP competition, 5 nM fluorescein-labeled tracer, 200 nM protein, PBS pH7.4; read-out: Binding STAT6
row,Structure (SMILES),Ki
1,"CC(=O)N1CC[C@H]2CC[C@@H](C(=O)N3CCC4(CCCC4)C3)N2C(=O)[C@@H](NC(=O)c2cc3cc(C(F)(F)P(=O)(O)O)ccc3s2)C1 [Compound 382, ((2-(((5S,8S,10aR)-3-acetyl-6-oxo-8-(2-azaspiro[4.4]nonane-2-carbonyl)decahydropyrrolo[1,2-a][1,5]diazocin-5-yl)carbamoyl)benzo[b]thiophen-5-yl)difluoromethyl)phosphonic acid]",> 10 µM
2,"CC(=O)N1CC[C@H]2CC[C@@H](C(=O)N3CCC4(CCCCC4)C3)N2C(=O)[C@@H](NC(=O)c2cc3cc(C(F)(F)P(=O)(O)O)ccc3s2)C1 [Compound 383, ((2-(((5,8S,10aR)-3-acetyl-6-oxo-8-(2-azaspiro[4.5]decane-2-carbonyl)decahydropyrrolo[1,2-a][1,5]diazocin-5-yl)carbamoyl)benzo[b]thiophen-5-yl)difluoromethyl)phosphonic acid]",> 10 µM
3,"CC(=O)N1CC[C@H]2CC[C@@H](C(=O)N3CCC4(CCCCCC4)C3)N2C(=O)[C@@H](NC(=O)c2cc3cc(C(F)(F)P(=O)(O)O)ccc3s2)C1 [Compound 385, ((2-(((5S,8S,10aR)-3-acetyl-6-oxo-8-(2-azaspiro[4.6]undecane-2-carbonyl)decahydropyrrolo[1,2-a][1,5]diazocin-5-yl)carbamoyl)benzo[b]thiophen-5-yl)difluoromethyl)phosphonic acid]",> 10 µM
4,"CC(=O)N1CC[C@H]2CC[C@@H](C(=O)N3CCCC34CCCC4)N2C(=O)[C@@H](NC(=O)c2cc3cc(C(F)(F)P(=O)(O)O)ccc3s2)C1 [Compound 387, ((2-(((5S,8S,10aR)-3-acetyl-6-oxo-8-(1-azaspiro[4.4]nonane-1-carbonyl)decahydropyrrolo[1,2-a][1,5]diazocin-5-yl)carbamoyl)benzo[b]thiophen-5-yl)difluoromethyl)phosphonic acid]",> 10 µM
5,"CCN(C(=O)[C@@H]1CC[C@@H]2CCN(C(C)=O)C[C@H](NC(=O)c3cc4cc(C(F)(F)P(=O)(O)O)ccc4s3)C(=O)N21)c1ccc(Cl)cc1 [Compound 388, ((2-(((5S,8S,10aR)-3-acetyl-8-((4-chlorophenyl)(ethyl)carbamoyl)-6-oxodecahydropyrrolo[1,2-a][1,5]diazocin-5-yl)carbamoyl)benzo[b]thiophen-5-yl)difluoromethyl)phosphonic acid]",> 10 µM
6,"CC(=O)N1CC[C@H]2CC[C@@H](C(=O)N(c3ccc(Cl)cc3)C(C)C)N2C(=O)[C@@H](NC(=O)c2cc3cc(C(F)(F)P(=O)(O)O)ccc3s2)C1 [Compound 389, ((2-(((5S,8S,10aR)-3-acetyl-8-((4-chlorophenyl)(isopropyl)carbamoyl)-6-oxodecahydropyrrolo[1,2-a][1,5]diazocin-5-yl)carbamoyl)benzo[b]thiophen-5-yl)difluoromethyl)phosphonic acid]",1 to 10 µM
7,"CC(=O)N1CC[C@H]2CC[C@@H](C(=O)N3CCC(C)(C(C)C)C3)N2C(=O)[C@@H](NC(=O)c2cc3cc(C(F)(F)P(=O)(O)O)ccc3s2)C1 (stereo partly drawn) [Compound 390, ((2-(((5S,8S,10aR)-3-acetyl-8-(3-isopropyl-3-methylpyrrolidine-1-carbonyl)-6-oxodecahydropyrrolo[1,2-a][1,5]diazocin-5-yl)carbamoyl)benzo[b]thiophen-5-yl)difluoromethyl)phosphonic acid]",> 10 µM
8,"CC(=O)N1CC[C@H]2CC[C@@H](C(=O)N3CCCCC4(CCCC4)C3)N2C(=O)[C@@H](NC(=O)c2cc3cc(C(F)(F)P(=O)(O)O)ccc3s2)C1 [Compound 391, ((2-(((5S,85,10aR)-3-acetyl-6-oxo-8-(7-azaspiro[4.6]undecane-7-carbonyl)decahydropyrrolo[1,2-a][1,5]diazocin-5-yl)carbamoyl)benzo[b]thiophen-5-yl)difluoromethyl)phosphonic acid]",> 10 µM
9,"CC(=O)N1CC[C@H]2CC[C@@H](C(=O)N3CCC(C(N)=O)(C(F)(F)F)C3)N2C(=O)[C@@H](NC(=O)c2cc3cc(C(F)(F)P(=O)(O)O)ccc3s2)C1 (stereo partly drawn) [Compound 392, ((2-(((5S,8S,10aR)-3-acetyl-8-(3-carbamoyl-3-(trifluoromethyl)pyrrolidine-1-carbonyl)-6-oxodecahydropyrrolo[1,2-a][1,5]diazocin-5-yl)carbamoyl)benzo[b]thiophen-5-yl)difluoromethyl)phosphonic acid]",> 10 µM
10,"CC(=O)N1CC[C@H]2CC[C@@H](C(=O)N3CCC(C)(c4ccccc4)C3)N2C(=O)[C@@H](NC(=O)c2cc3cc(C(F)(F)P(=O)(O)O)ccc3s2)C1 (stereo partly drawn) [Compound 393, ((2-(((5S,8S,10aR)-3-acetyl-8-(3-methyl-3-phenylpyrrolidine-1-carbonyl)-6-oxodecahydropyrrolo[1,2-a][1,5]diazocin-5-yl)carbamoyl)benzo[b]thiophen-5-yl)difluoromethyl)phosphonic acid]",> 10 µM
11,"CC(=O)N1CC[C@H]2CC[C@@H](C(=O)N(C)c3ccc(Br)cc3)N2C(=O)[C@@H](NC(=O)c2cc3cc(C(F)(F)P(=O)(O)O)ccc3s2)C1 [Compound 394, ((2-(((5S,8S,10aR)-3-acetyl-8-((4-bromophenyl)(methyl)carbamoyl)-6-oxodecahydropyrrolo[1,2-a][1,5]diazocin-5-yl)carbamoyl)benzo[b]thiophen-5-yl)difluoromethyl)phosphonic acid]",> 10 µM
12,"CC(=O)N1CC[C@H]2CC[C@@H](C(=O)N3CCC(C)(C4CC4)C3)N2C(=O)[C@@H](NC(=O)c2cc3cc(C(F)(F)P(=O)(O)O)ccc3s2)C1 (stereo partly drawn) [Compound 395, ((2-(((5S,8S,10aR)-3-acetyl-8-(3-cyclopropyl-3-methylpyrrolidine-1-carbonyl)-6-oxodecahydropyrrolo[1,2-a][1,5]diazocin-5-yl)carbamoyl)benzo[b]thiophen-5-yl)difluoromethyl)phosphonic acid]",> 10 µM
